According to patent US20030166932A1 (priority 2002, published 2003):

Columns and labels:
RXRα [1] = target: T1, RXRα (Homo sapiens, UniProt P19793); assay: ligand binding assay
T1 sequence (P19793 1-462): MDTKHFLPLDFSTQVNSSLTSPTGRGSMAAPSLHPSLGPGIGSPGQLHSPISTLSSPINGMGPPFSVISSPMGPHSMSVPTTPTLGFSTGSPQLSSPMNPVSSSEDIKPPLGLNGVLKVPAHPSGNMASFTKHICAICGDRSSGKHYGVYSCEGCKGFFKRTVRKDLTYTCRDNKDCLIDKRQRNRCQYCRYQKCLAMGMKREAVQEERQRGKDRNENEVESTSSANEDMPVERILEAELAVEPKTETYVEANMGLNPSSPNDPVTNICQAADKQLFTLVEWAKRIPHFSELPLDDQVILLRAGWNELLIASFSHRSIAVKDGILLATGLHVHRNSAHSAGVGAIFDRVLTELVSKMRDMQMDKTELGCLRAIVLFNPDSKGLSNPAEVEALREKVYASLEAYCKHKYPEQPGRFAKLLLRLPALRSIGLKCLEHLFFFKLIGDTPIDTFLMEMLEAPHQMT
From the text: (§1) The results obtained in this assay are expressed in EC50 numbers, as they are also in the chimeric receptor transactivation assay. The results of ligand binding assay are expressed in Kd numbers.
(§2) Particularly, the transactivation data pertaining to RAR receptors were obtained in the chimeric assay, and the data pertaining to transactivation of RXR receptors were obtained in the holoreceptor transactivation assay.

RARβ = target: T2, RARβ (Homo sapiens, UniProt P10826); assay: ligand binding assay; settings: read-out: RAR Bind. Ki (nM) β
T2 sequence (P10826 1-455): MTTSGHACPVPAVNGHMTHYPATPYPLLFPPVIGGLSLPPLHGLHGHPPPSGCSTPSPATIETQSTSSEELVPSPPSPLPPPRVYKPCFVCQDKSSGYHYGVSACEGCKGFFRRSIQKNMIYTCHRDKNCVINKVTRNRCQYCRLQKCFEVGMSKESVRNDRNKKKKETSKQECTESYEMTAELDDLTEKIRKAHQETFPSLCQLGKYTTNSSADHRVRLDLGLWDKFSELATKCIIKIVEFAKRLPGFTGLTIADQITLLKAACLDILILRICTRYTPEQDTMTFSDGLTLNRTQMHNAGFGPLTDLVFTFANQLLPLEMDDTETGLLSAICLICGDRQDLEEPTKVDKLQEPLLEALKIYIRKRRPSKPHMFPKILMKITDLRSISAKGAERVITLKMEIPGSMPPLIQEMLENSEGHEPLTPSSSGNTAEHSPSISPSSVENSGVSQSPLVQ
From the text: as §1, §2

RXRγ [2] = target: T3, RXRγ (UniProt P28705); assay: ligand binding assay; settings: read-out: RXR Bind Ki (nM) Y
T3 sequence (P28705 1-463): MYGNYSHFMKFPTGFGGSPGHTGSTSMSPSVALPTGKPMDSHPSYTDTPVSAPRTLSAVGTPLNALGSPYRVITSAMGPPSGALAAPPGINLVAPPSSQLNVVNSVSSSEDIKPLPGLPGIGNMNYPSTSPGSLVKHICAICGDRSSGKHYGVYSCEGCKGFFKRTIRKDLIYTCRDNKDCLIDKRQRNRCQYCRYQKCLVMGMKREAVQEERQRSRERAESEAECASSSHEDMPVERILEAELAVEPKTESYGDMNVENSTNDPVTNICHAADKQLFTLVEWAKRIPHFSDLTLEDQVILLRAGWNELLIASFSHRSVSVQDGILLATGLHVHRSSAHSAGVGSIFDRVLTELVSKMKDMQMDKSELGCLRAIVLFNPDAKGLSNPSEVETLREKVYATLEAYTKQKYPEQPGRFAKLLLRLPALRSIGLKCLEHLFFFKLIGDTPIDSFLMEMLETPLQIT

RXRα [3] = target: T1, RXRα; assay: holoreceptor transactivation assay; settings: for Emax: read-out: % efficacy, RXR Trans. α
From the text: as §1, §2

RXRβ [4] = target: T4, RXRβ (UniProt P28704); assay: ligand binding assay; settings: read-out: RXR Bind Ki (nM) β
T4 sequence (P28704 1-520): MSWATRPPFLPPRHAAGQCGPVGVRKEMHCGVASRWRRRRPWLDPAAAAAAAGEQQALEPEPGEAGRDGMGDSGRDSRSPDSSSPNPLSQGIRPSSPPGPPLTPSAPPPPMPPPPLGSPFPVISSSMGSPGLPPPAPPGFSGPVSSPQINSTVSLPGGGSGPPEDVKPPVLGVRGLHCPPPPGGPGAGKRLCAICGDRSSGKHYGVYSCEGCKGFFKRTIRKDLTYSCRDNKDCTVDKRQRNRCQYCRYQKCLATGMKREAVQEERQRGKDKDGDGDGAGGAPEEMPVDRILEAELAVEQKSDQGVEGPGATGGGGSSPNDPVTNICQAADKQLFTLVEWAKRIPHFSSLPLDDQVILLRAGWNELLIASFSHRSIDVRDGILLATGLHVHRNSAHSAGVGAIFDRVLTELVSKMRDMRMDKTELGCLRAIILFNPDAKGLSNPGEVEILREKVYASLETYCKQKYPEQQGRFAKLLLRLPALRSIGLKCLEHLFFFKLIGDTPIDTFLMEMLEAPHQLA
From the text: as §1, §2

RARγ = target: T5, RARγ (Homo sapiens, UniProt P13631); assay: ligand binding assay; settings: read-out: RAR Bind. Ki (nM) Y
T5 sequence (P13631 1-454): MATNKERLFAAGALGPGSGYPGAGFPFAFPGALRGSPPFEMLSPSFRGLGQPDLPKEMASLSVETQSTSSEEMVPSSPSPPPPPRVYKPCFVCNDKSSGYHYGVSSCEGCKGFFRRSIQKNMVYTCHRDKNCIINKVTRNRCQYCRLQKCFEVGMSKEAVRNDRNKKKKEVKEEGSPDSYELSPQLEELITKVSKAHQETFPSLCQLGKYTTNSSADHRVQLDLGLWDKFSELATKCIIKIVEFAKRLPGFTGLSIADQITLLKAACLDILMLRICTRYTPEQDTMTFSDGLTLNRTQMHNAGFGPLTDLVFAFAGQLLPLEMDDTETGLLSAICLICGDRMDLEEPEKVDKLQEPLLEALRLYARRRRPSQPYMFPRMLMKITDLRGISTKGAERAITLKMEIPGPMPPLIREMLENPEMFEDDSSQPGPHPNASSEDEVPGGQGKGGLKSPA
From the text: as §1, §2

RXRγ [5] = target: T3, RXRγ; assay: holoreceptor transactivation assay; assay type: cell-based; settings: for EC50: NA = Not Active, read-out: RXR Trans. EC50 (nM) Y; for % efficacy, RXR Trans. Y: relative to 10^−6 M AGN 194204
From the text: as §1, §2

RXRβ [6] = target: T4, RXRβ; assay: holoreceptor transactivation assay; assay type: cell-based; settings: for % efficacy, RXR Trans. β: relative to 10^−6 M AGN 194204; for EC50: NA = Not Active, read-out: RXR Trans. EC50 (nM) β
From the text: as §1, §2

Structure (SMILES) | Ki (RXRγ [2]) [nM] | Emax (RXRα [3]) [%] | EC50 (RXRγ [5]) [nM] | % efficacy, RXR Trans. Y (RXRγ [5]) | EC50 (RXRα [3]) [nM] | Ki (RXRα [1]) [nM] | Ki (RARβ) [nM] | Ki (RXRβ [4]) [nM] | Ki (RARγ) [nM] | % efficacy, RXR Trans. β (RXRβ [6]) | EC50 (RXRβ [6]) [nM]
CCN(c1ccc(C(=O)O)cc1)c1cc2c(cc1OCc1cc(C(C)(C)C)cc(C(C)(C)C)c1)C(C)(C)CC=C2C(C)C [Compound 156, 4-{[3-(3,5-di-t-butylbenzyloxy)-8-isopropyl-5,5-dimethyl-5,6-dihydronaphthalen-2-yl]ethylamino}benzoic acid] | > 1000 |  |  |  |  | 804 | 1500 | > 1000 | 4200 |  | 
CCN(c1ccc(C(=O)O)cc1)c1cc2c(cc1OCc1ccccc1)C(C)(C)CC=C2C(C)C [Compound 154, 4-[(3-Benzyloxy-8-isopropyl-5,5-dimethyl-5,6-dihydronaphthalen-2-yl)ethylamino]benzoic acid] | 41 |  |  |  |  | 3 | 1800 | 19 | 6200 |  | 
CCN(c1ccc(C(=O)O)cc1)c1cc2c(cc1C)C(C)(C)CC=C2C(C)C [Compound 25, 4-[Ethyl(8-isopropyl-3,5,5-trimethyl-5,6-dihydronaphthalen-2-yl)amino]benzoic acid] |  | 97 | 0.2 | (105) % | < 0.1 | 2 | 6400 | 20 | 4400 | (96) % | 0.9
CCC1=CCC(C)(C)c2cc(N(CC)c3ccc(C(=O)O)cc3)ccc21 [Compound 75, 4-[Ethyl-(5-ethyl-8,8-dimethyl-7,8-dihydro-naphthalen-2-yl)-amino]-benzoic acid] |  | 100 |  | (95) % | 319 | 442 | > 10000 | 806 | > 10000 | (75) % | 
CCN(c1ccc(C(=O)O)cc1)c1cc2c(cc1OCc1ccccc1)C(C)(C)CC=C2C(C)(C)C [Compound 158] | 161 |  |  |  |  | 4 | 374 | 3 | 881 |  | 
CCCCOc1cc2c(cc1N(CC)c1ccc(C(=O)O)cc1)C(C(C)C)=CCC2(C)C [Compound 152, 4-[(3-n-Butoxy-8-isopropyl-5,5-dimethyl-5,6-dihydronaphthalen-2-yl)ethylamino]benzoic acid] | 437 |  |  |  |  | 29 | 2300 | 136 |  |  | 
CC1=CCC(C)(C)c2cc(N(C)c3ccc(C(=O)O)cc3)ccc21 [Compound 67, 4-[Methyl-(5,8,8-trimethyl-7,8-dihydro-naphthalen-2-yl)-amino]-benzoic acid] | 1300 |  |  |  |  | 666 | > 10000 | > 1000 |  |  | 

Continued, in another order:

Ki (RXRγ [2]) [nM] | Emax (RXRα [3]) [%] | EC50 (RXRγ [5]) [nM] | % efficacy, RXR Trans. Y (RXRγ [5]) | EC50 (RXRα [3]) [nM] | Structure (SMILES) | Ki (RXRα [1]) [nM] | Ki (RARβ) [nM] | Ki (RXRβ [4]) [nM] | Ki (RARγ) [nM] | % efficacy, RXR Trans. β (RXRβ [6]) | EC50 (RXRβ [6]) [nM]
> 1000 | 50 | > 1000 | (25) % |  | CCN(c1ccc(C(=O)O)cc1)c1cc2c(cc1C)C(C)=CCC2(C)C [Compound 45, 4-[Ethyl(3,5,8,8-tetramethyl-7,8-dihydronaphthalen-2-yl)amino]benzoic acid] | > 1000 | > 10000 | > 1000 | > 10000 |  | 
248 |  |  |  |  | CCN(c1ccc(C(=O)O)cc1)c1cc2c(cc1OC(C)C)C(C)(C)CC=C2C(C)C [Compound 151, 4-[Ethyl-(3-isopropoxy-5,5-dimethyl-8-isopropyl-5,6-dihydronaphthalen-2-yl)amino]benzoic acid] | 54 | 1200 | 155 | > 10000 |  | 
101 | 88 | 182 | (124) % | 72 | CCN(c1ccc(C(=O)O)cc1)c1cc2c(cc1C)C(C(C)(C)C)=CCC2(C)C [Compound 60, 4-[Ethyl-(5-t-butyl-3,8,8-trimethyl-7,8-dihydronaphthalen-2-yl)amino]benzoic acid] | 64 | > 10000 | 426 |  | (60) % | 
398 |  |  |  |  | CCN(c1ccc(C(=O)O)cc1)c1cc2c(cc1OCc1ccc(C)cc1)C(C)(C)CC=C2C(C)C [Compound 155, 4-{Ethyl-[8-isopropyl-5,5-dimethyl-3-(4-methylbenzyloxy)-5,6-dihydronaphthalen-2-yl]amino}benzoic acid] | 3 | 1400 | 334 | 2900 |  | 
8 | 108 | 1 | 105) % | 1 | CCCN(c1ccc(C(=O)O)cc1)c1ccc2c(c1)C(C(C)(C)C)=CCC2(C)C [Compound 89] | 7 | > 10000 | 34 |  | (93) % | 8
> 1000 | 30 | > 1000 | (15) % | > 1000 | CC1=CCC(C)(C)c2cc(N(C)c3ccc(C(=O)O)cc3)c(C)cc21 [Compound 44, 4-[Methyl(3,5,8,8-tetramethyl-7,8-dihydronaphthalen-2-yl)amino]benzoic acid] | > 1000 | > 10000 | > 1000 | > 10000 |  | 
352 |  |  |  |  | CCCOc1cc2c(cc1N(CC)c1ccc(C(=O)O)cc1)C(C(C)C)=CCC2(C)C [Compound 150, 4-[Ethyl-(8-isopropyl-5,5-dimethyl-3-n-propoxy-5,6-dihydronaphthalen-2-yl)amino]benzoic acid] | 61 | 3800 | 208 | 7900 |  | 
